Measurements from US20020151581A1, “Glucose and lipid lowering compounds” (priority 1998, published 2002).

What was measured:
hepatic lipase = target: T1, hepatic lipase (Homo sapiens, UniProt P11150); experiment: Inhibition of hepatic lipase, glycerol stabilized triolein substrate; format: biochemical; set-up: Pur. Hepatic Lipase + test compound (enzyme activity): unit not given beside the values; settings: test compound 100 μM
T1 sequence (P11150 23-499): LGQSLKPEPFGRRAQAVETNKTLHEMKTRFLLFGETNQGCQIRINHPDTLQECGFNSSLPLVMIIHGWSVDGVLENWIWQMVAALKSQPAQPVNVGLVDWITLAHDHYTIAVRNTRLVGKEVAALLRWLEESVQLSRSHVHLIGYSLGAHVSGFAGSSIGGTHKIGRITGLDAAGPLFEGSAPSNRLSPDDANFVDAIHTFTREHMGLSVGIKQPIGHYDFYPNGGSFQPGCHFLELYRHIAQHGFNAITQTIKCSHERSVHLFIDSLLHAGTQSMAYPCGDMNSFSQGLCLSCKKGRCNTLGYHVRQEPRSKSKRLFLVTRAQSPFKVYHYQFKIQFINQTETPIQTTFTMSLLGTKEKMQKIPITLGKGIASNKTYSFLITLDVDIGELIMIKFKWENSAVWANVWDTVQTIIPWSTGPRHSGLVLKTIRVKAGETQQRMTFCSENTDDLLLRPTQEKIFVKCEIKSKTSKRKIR

[1] = target: T2, hormone-sensitive lipase derived from a preparation of 3T3-cell lysate (Mus musculus, UniProt P54310); experiment: Inhibition of hormone-sensitive lipase from 3T3-L1 cell lysate on glycerol-stabilized triolein; format: biochemical; settings: test compound 100 μM
T2 construct: hormone-sensitive lipase derived from a preparation of 3T3-cell lysate; endogenous in cells; host or cells: 3T3-L1 cell lysate
T2 sequence (P54310 1-759): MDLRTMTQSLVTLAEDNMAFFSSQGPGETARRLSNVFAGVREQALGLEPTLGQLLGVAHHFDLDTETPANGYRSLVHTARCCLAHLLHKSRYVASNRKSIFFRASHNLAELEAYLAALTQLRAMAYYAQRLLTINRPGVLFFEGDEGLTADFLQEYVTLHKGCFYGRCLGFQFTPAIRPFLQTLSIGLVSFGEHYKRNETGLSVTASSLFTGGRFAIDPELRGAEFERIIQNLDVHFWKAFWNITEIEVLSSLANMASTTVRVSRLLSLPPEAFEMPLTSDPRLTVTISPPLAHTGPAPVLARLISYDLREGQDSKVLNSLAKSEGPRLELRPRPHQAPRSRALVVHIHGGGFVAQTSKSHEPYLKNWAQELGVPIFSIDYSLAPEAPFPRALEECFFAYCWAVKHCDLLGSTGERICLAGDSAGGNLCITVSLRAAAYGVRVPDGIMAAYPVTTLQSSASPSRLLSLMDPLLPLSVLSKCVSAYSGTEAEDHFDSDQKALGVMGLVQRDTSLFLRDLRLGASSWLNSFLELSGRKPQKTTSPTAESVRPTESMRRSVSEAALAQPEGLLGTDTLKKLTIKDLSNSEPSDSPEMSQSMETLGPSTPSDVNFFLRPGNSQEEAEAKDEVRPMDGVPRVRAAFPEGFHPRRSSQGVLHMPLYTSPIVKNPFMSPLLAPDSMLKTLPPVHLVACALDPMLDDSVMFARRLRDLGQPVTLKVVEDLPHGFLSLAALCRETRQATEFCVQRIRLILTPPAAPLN
Method: Recombinant hormone-sensitive lipase protein isolated from a bacterial expression vector was pre-incubated with a compound of the invention (e.g., 100 μM) prior to the addition of substrate, emulsified triolein phosphatidylcholine/phosphatidylinositol (PC/PI), to initiate the reaction. At various time points, aliquots of the reaction were taken, and the level of glycerol used as an index of enzyme activity. Pharmacological specificity is determined by incubating test compound with other mammalian and non-mammalian lipase enzyme systems to assess inhibition of activity. The assay was conducted using triolein concentrations from 42 μM to 835 μM.
In a similar manner to that described in Example 4 above, 2α-benzoyloxy-4,5,7,8,11αH-eudesman-8,12-olide at 100 μM was evaluated for ability to activity of recombinant hormone-sensitive lipase and hormone-sensitive lipase derived from a preparation of 3T3-cell lysate on glycerol-stabilized triolein.

- inhibition of hepatic lipase (in words) (hepatic lipase): failed to significantly inhibit
- Pur. Hepatic Lipase + test compound (enzyme activity) (hepatic lipase; triolein substrate 30 μM): 0.08
- Pur. Hepatic Lipase + test compound (enzyme activity) (hepatic lipase; triolein substrate 67 μM): 0.37
- Pur. Hepatic Lipase + test compound (enzyme activity) (hepatic lipase; triolein substrate 100 μM): 0.69
- Pur. Hepatic Lipase + test compound (enzyme activity) (hepatic lipase; triolein substrate 201 μM): 6.36
- Pur. Hepatic Lipase + test compound (enzyme activity) (hepatic lipase; triolein substrate 400 μM): 30.80
- Pur. Hepatic Lipase + test compound (enzyme activity) (hepatic lipase; triolein substrate 1000 μM): 151.60
- inhibition at 100 µM ([1]; triolein 30 μM): 63%
- inhibition at 100 µM ([1]; triolein 67 μM): 56%
- inhibition at 100 µM ([1]; triolein 100 μM): 51%
- inhibition at 100 µM ([1]; triolein 201 μM): 41%
- inhibition at 100 µM ([1]; triolein 400 μM): 38%
- inhibition at 100 µM ([1]; triolein 601 μM): 30%
- inhibition at 100 µM ([1]; triolein 800 μM): 18%
- inhibition at 100 µM ([1]; triolein 1000 μM): 15%
SMILES: CC1C[C@H](OC(=O)c2ccccc2)C[C@]2(C)C[C@H]3OC(=O)[C@@H](C)[C@H]3CC12 (stereo partly drawn) [2α-benzoyloxy-4,5,7,8,11αH-eudesman-8,12-olide]
